The values that follow are results of earlier work, collected in patent publication US20240001339A1, “DRYING PROCESSES FOR BIO-COMPATIBLE SPME COATINGS” (SIGMS-ALDRICH CO. LLC, priority 2020, published 2024).

The conditions of data set [1]: for conventional SPME devices.

Broadly, the pKa is the negative logarithm of the acid dissociation constant. Regarding `NC(=O)N1c2ccccc2C=Cc2ccccc21` [Carbamazepine], the Log p was 2.45 and the pKa is on record as 13.9. The reference protein binding in data set [1] was 70-80%.
